Data taken from publication PMC4899609, “Spectroscopic and Docking Studies on the Binding of Liquiritigenin with Hyaluronidase for Antiallergic Mechanism” (Scientifica, 2016).

What was measured:
[1] = biological target: T1, Hyaluronidase (HAase); experiment: modified Morgan-Elson colorimetric assay (DMAB, […] nm); assay type: biochemical; conditions: hyaluronic acid sodium 0.5 mg mL^−1; HAase 500 U mL^−1; CaCl2 12.5 mM; 37 °C
T1 construct: gene SPAM1; ovine testis or bacterial possible; human HYAL1 2PE4 was only the docking model

[2] = tested on: T1, Hyaluronidase (HAase); experiment: intrinsic fluorescence quenching, excitation […] nm; assay type: binding; conditions: 293 K; sodium phosphate buffer pH 7.4; HAase 2.0 × 10^−6 mol L^−1; n 1.0623; double-log

SMILES: O=C1C[C@@H](c2ccc(O)cc2)Oc2cc(O)ccc21 [liquiritigenin]
- IC50 [1]: 680 ± 43 µM
- K a [2]: 39537 L/mol
